≈ marks a conversion by molar mass, not a printed value.
Key:
[1] = tested on: in vitro grown Mycobacteria (M. tuberculosis); assay: QUM: Quantification of in vitro grown Mycobacteria (in vitro growth fluorescence assay); assay type: cell-based; conditions: Mycobacterium tuberculosis; MIC, 80% bacterial growth inhibition; in vitro growth; read-out: QUM
Outline: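 Mycobacterium tuberculosis grown in vitro was quantified by fluorescence across compound dose responses. MIC is defined as the minimum concentration producing 80% growth inhibition.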

[2] = tested on: M. tuberculosis inside the host macrophage; assay: QIM: Quantification of Intracellular Mycobacteria (intracellular growth assay, phenotypic cell-based); conditions: Mycobacterium tuberculosis; MIC, 80% bacterial growth inhibition; intracellular growth; read-out: QIM
Outline: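 Phenotypic high-content assay measuring M. tuberculosis multiplication inside host macrophages, run as dose response. MIC is the minimum compound concentration giving 80% bacterial growth inhibition.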

Row | SMILES | MIC [1] | MIC [2]
1 | CCc1nc2cc(Cl)ccn2c1C(=O)NCc1ccc(-c2ccccc2C#N)cc1 [Compound 126, 7-Chloro-N-((2′-cyanobiphenyl-4-yl)methyl)-2-ethylimidazo[1,2-a]pyridine-3-carboxamide] | < 1 µM | 1 to 20 µM (≈ 0.415 to 8.3 µg/mL)
2 | CCc1nc2ccc(Cl)cn2c1C(=O)NCc1ccc(-c2cccc(C#N)c2)cc1 [Compound 127, 6-Chloro-N-((3′-cyanobiphenyl-4-yl)methyl)-2-ethylimidazo[1,2-a]pyridine-3-carboxamide] | > 20 µM | < 1 µM
3 | CCc1nc2cc(Cl)ccn2c1C(=O)NCc1ccc(-c2cccc(C#N)c2)cc1 [Compound 128, 7-Chloro-N-((3′-cyanobiphenyl-4-yl)methyl)-2-ethylimidazo[1,2-a]pyridine-3-carboxamide] | > 20 µM | < 1 µM
4 | CCc1nc2ccc(Cl)cn2c1C(=O)NCc1ccc(-c2ccc(Cl)cc2C(F)(F)F)cc1 [Compound 129, 6-Chloro-N-((4′-chloro-2′-(trifluoromethyl)biphenyl-4-yl)methyl)-2-ethylimidazo[1,2-a]pyridine-3-carboxamide] | < 1 µM | < 1 µM
5 | CCc1nc2cc(Cl)ccn2c1C(=O)NCc1ccc(-c2ccc(Cl)cc2C(F)(F)F)cc1 [Compound 130, 7-Chloro-N-((4′-chloro-2′-(trifluoromethyl)biphenyl-4-yl)methyl)-2-ethylimidazo[1,2-a]pyridine-3-carboxamide] | 1 to 20 µM (≈ 0.492 to 9.85 µg/mL) | < 1 µM
6 | CCc1nc2ccc(Cl)cn2c1C(=O)NCc1ccc(-c2ccc(C#N)cc2C)cc1 [Compound 131, 6-Chloro-N-((4′-cyano-2′-methylbiphenyl-4-yl)methyl)-2-ethylimidazo[1,2-a]pyridine-3-carboxamide] | < 1 µM | < 1 µM
7 | CCc1nc2cc(Cl)ccn2c1C(=O)NCc1ccc(-c2ccc(C#N)cc2C)cc1 [Compound 132, 7-Chloro-N-((4′-cyano-2′-methylbiphenyl-4-yl)methyl)-2-ethylimidazo[1,2-a]pyridine-3-carboxamide] | < 1 µM | < 1 µM
8 | CCc1nc2cc(Cl)ccn2c1C(=O)NCc1ccc(-c2ccc(F)cc2Cl)cc1 [Compound 133, 7-Chloro-N-((2′-chloro-4′-fluorobiphenyl-4-yl)methyl)-2-ethylimidazo[1,2-a]pyridine-3-carboxamide] | < 1 µM | < 1 µM
9 | CCc1nc2cc(Cl)ccn2c1C(=O)NCc1ccc(-c2ccncc2)cc1 [Compound 134, 7-Chloro-2-ethyl-N-(4-(pyridin-4-yl)benzyl)imidazo[1,2-a]pyridine-3-carboxamide] | 1 to 20 µM (≈ 0.391 to 7.82 µg/mL) | < 1 µM
10 | CCc1nc2cc(Cl)ccn2c1C(=O)NCc1ccc(-c2ccc(OC)cn2)cc1 [Compound 135, 7-Chloro-2-ethyl-N-(4-(5-methoxypyridin-2-yl)benzyl)imidazo[1,2-a]pyridine-3-carboxamide] | 1 to 20 µM (≈ 0.421 to 8.42 µg/mL) | < 1 µM
11 | CCc1nc2cc(Cl)ccn2c1C(=O)NCc1ccc(-c2ccc[nH]2)cc1 [Compound 136, N-(4-(1H-Pyrrol-2-yl)benzyl)-7-chloro-2-ethylimidazo[1,2-a]pyridine-3-carboxamide] | 1 to 20 µM (≈ 0.379 to 7.58 µg/mL) | 1 to 20 µM (≈ 0.379 to 7.58 µg/mL)
12 | CCc1nc2cc(Cl)ccn2c1C(=O)NCc1ccc(-c2ccco2)cc1 [Compound 137, 7-Chloro-2-ethyl-N-(4-(furan-2-yl)benzyl)imidazo[1,2-a]pyridine-3-carboxamide] | 1 to 20 µM (≈ 0.38 to 7.6 µg/mL) | < 1 µM
13 | CCc1nc2cc(Cl)ccn2c1C(=O)NCc1ccc(-n2cccc2)cc1 [Compound 138, N-(4-(1H-Pyrrol-1-yl)benzyl)-7-chloro-2-ethylimidazo[1,2-a]pyridine-3-carboxamide] | < 1 µM | < 1 µM
14 | CCc1nc2ccc(Cl)cn2c1C(=O)NCc1ccc(N2CCC(Oc3ccc(OC(F)(F)F)cc3)CC2)cc1 [Compound 139, 6-Chloro-2-ethyl-N-(4-(4-(4-(trifluoromethoxy)phenoxy)piperidin-1-yl)benzyl)imidazo-[1,2-a]pyridine-3-carboxamide] | < 1 µM | < 1 µM
15 | CCc1nc2cc(Cl)ccn2c1C(=O)NCc1ccc(N2CCC(Oc3ccc(OC(F)(F)F)cc3)CC2)cc1 [Compound 140, 7-Chloro-2-ethyl-N-(4-(4-(4-(trifluoromethoxy)phenoxy)piperidin-1-yl)benzyl)imidazo-[1,2-a]pyridine-3-carboxamide] | < 1 µM | < 1 µM
16 | CCc1nc2cnccn2c1C(=O)NCc1ccc(-c2ccc(Cl)cc2)cc1 [Compound 141, N-((4′-Chlorobiphenyl-4-yl)methyl)-2-ethylimidazo[1,2-a]pyrazine-3-carboxamide] | < 1 µM | < 1 µM
17 | CCc1nc2cc(Cl)ccn2c1NC(=O)c1ccc(-c2ccccc2)cc1 [Compound 142, N-(7-Chloro-2-ethylimidazo[1,2-a]pyridin-3-yl)biphenyl-4-carboxamide] | > 20 µM | > 20 µM

Row | SMILES | MIC [1] | MIC [2]
18 | CCc1nc2cc(Cl)ccn2c1NC(=O)Cc1ccc(-c2ccccc2)cc1 [Compound 143, 2-(Biphenyl-4-yl)-N-(7-chloro-2-ethylimidazo[1,2-a]pyridin-3-yl)acetamide] | 1 to 20 µM (≈ 0.39 to 7.8 µg/mL) | < 1 µM
19 | CCCC(=O)NCc1ccc(N2CCN(c3ccc(CNC(=O)c4c(CC)nc5cc(Cl)ccn45)cc3)CC2)cc1 [Compound 144, N-(4-(4-(4-(Butyramidomethyl)phenyl)piperazin-1-yl)benzyl)-7-chloro-2-ethylimidazo-[1,2-a]pyridine-3-carboxamide] | < 1 µM | < 1 µM
20 | CCc1nc2cc(N3CCNCC3)ccn2c1C(=O)NCc1ccc(C(C)(C)C)cc1 [Compound 145, N-(4-tert-Butylbenzyl)-2-ethyl-7-(piperazin-1-yl)imidazo[1,2-a]pyridine-3-carboxamide] | > 20 µM | > 20 µM
21 | CCc1nc2ccc([N+](=O)[O-])cn2c1C(=O)NCc1ccc(OC(F)(F)F)cc1 [Compound 149, 2-Ethyl-6-nitro-N-(4-(trifluoromethoxy)benzyl)imidazo[1,2-a]pyridine-3-carboxamide] | > 20 µM | > 20 µM
22 | CCc1nc2cc([N+](=O)[O-])ccn2c1C(=O)NCc1ccc(OC(F)(F)F)cc1 [Compound 150, 2-Ethyl-7-nitro-N-(4-(trifluoromethoxy)benzyl)imidazo[1,2-a]pyridine-3-carboxamide] | > 20 µM | > 20 µM
23 | CCc1nc2ccc(C(F)(F)F)cn2c1C(=O)NCc1ccc(OC(F)(F)F)cc1 [Compound 151, 2-Ethyl-N-(4-(trifluoromethoxy)benzyl)-6-(trifluoromethyl)imidazo[1,2-a]pyridine-3-carboxamide] | 1 to 20 µM (≈ 0.431 to 8.63 µg/mL) | > 20 µM
24 | CCc1nc2ccc(Br)cn2c1C(=O)NCc1ccc(OC(F)(F)F)cc1 [Compound 152, 6-Bromo-2-ethyl-N-(4-(trifluoromethoxy)benzyl)imidazo[1,2-a]pyridine-3-carboxamide] | < 1 µM | < 1 µM
25 | CCc1nc2cc(Cl)c(Cl)cn2c1C(=O)NCc1ccc(OC(F)(F)F)cc1 [Compound 153, 6,7-Dichloro-2-ethyl-N-(4-(trifluoromethoxy)benzyl)imidazo[1,2-a]pyridine-3-carboxamide] | 1 to 20 µM (≈ 0.432 to 8.64 µg/mL) | > 20 µM
26 | Cc1nc2ccc(Cl)cn2c1C(=O)NCc1ccc(OC(F)(F)F)cc1 [Compound 154, 6-Chloro-2-methyl-N-(4-(trifluoromethoxy)benzyl)imidazo[1,2-a]pyridine-3-carboxamide] | < 1 µM | 1 to 20 µM (≈ 0.384 to 7.68 µg/mL)
27 | CCCC(=O)NCc1ccc(-c2ccc(CNC(=O)c3c(CC)nc4cc(Cl)ccn34)cc2)cc1 [Compound 159, N-((4′-(Butyramidomethyl)biphenyl-4-yl)methyl)-7-chloro-2-ethylimidazo[1,2-a]pyridine-3-carboxamide] | < 1 µM | < 1 µM
28 | CCc1nc2ccc(Cl)cn2c1C(=O)NCc1ccc(N2CCC(Oc3ccc(Cl)cc3)CC2)cc1 [Compound 162, 6-Chloro-N-(4-(4-(4-chlorophenoxy)piperidin-1-yl)benzyl)-2-ethylimidazo[1,2-a]pyridine-3-carboxamide] | < 1 µM | < 1 µM
29 | CCc1nc2cc(Cl)ccn2c1C(=O)NCc1ccc(N2CCC(Oc3ccc(Cl)cc3)CC2)cc1 [Compound 163, 7-Chloro-N-(4-(4-(4-chlorophenoxy)piperidin-1-yl)benzyl)-2-ethylimidazo[1,2-a]pyridine-3-carboxamide] | < 1 µM | < 1 µM
30 | CCc1nc2ccc(Cl)cn2c1C(=O)NCc1ccc(N2CCC(Oc3ccc(C(F)(F)F)cc3)CC2)cc1 [Compound 164, 6-Chloro-2-ethyl-N-(4-(4-(4-(trifluoromethyl)phenoxy)piperidin-1-yl)benzyl) imidazo[1,2-a]pyridine-3-carboxamide] | < 1 µM | < 1 µM
31 | CCc1nc2cc(Cl)ccn2c1C(=O)NCc1ccc(N2CCC(Oc3ccc(C(F)(F)F)cc3)CC2)cc1 [Compound 165, 7-Chloro-2-ethyl-N-(4-(4-(4-(trifluoromethyl)phenoxy)piperidin-1-yl)benzyl) imidazo[1,2-a]pyridine-3-carboxamide] | < 1 µM | < 1 µM
32 | CCc1nc2ccc(Cl)cn2c1C(=O)NCc1ccc(N2CCC(Oc3ccc(F)cc3)CC2)cc1 [Compound 166, 6-Chloro-2-ethyl-N-(4-(4-(4-fluorophenoxy)piperidin-1-yl)benzyl)imidazo[1,2-a]pyridine-3-carboxamide] | < 1 µM | < 1 µM
33 | CCc1nc2ccc(C(F)(F)F)cn2c1C(=O)NCc1ccc(N2CCC(Oc3ccc(OC(F)(F)F)cc3)CC2)cc1 [Compound 168, 2-Ethyl-N-(4-(4-(4-(trifluoromethoxy)phenoxy)piperidin-1-yl)benzyl)-6-(trifluoromethyl)imidazo[1,2-a]pyridine-3-carboxamide] | 1 to 20 µM (≈ 0.607 to 12.1 µg/mL) | 1 to 20 µM (≈ 0.607 to 12.1 µg/mL)

— US8865734B2 (priority 2010, dated 2014)
